The source of these data is US20100249172A1, “9-CHLORO NOSCAPINE AND ITS USE IN TREATING CANCERS, INCLUDING DRUG-RESISTANT CANCERS” (EMORY UNIVERSITY, priority 2007, published 2010).

As a reminder, the Kd is the constant that tells how readily two partners part at equilibrium.

The target of one series is T1, tubulin.
T1 construct: other: 2 μM tubulin, 45 min at 37° C., pH 6.8; mean±SD, four experim
The series can be described thus: Tubulin binding assay (fluorescence titration / quenching). Also noted: species or system mammalian. The note with it: 2 μM tubulin, 45 min at 37° C., pH 6.8; mean±SD, four experiments; read-out: dissociation constant (Kd) for binding to tubulin. On the procedure:
Cell culture reagents were obtained from Mediatech, Cellgro. CEM, a human lymphoblastoid line was provided by Dr. William T. Beck (Cancer Center, University of Illinois at Chicago). MCF-7 cells were maintained in Dulbecco's Modification of Eagle's Medium 1× (DMEM) with 4.5 g/L glucose and L-glutamine (Mediatech, Cellgro) supplemented with 10% fetal bovine serum (Invitrogen, Carlsbad, Calif.) and 1% penicillin/streptomycin (Mediatech, Cellgro). MDA-MB-231 and CEM cells were grown in RPMI-1640 medium supplemented with 10% fetal bovine serum, and 1% penicillin/streptomycin. […]
Fluorescence titration for determining the tubulin binding parameters was performed as described previously. […] The relative intrinsic fluorescence intensity of tubulin was then monitored in a JASCO FP-6500 spectrofluorometer (JASCO, Tokyo, Japan) using a cuvette of 0.3-cm path length, and the excitation wavelength was 295 nm. The fluorescence emission intensity of noscapine and its derivatives at this excitation wavelength was negligible. A 0.3-cm path-length cuvette was used to minimize the inner filter effects caused by the absorbance of these agents at higher concentration ranges. In addition, the inner filter effects were corrected using a formula F corrected ═F observed•antilog [(Aex+Aem)/2], where Aex is the absorbance at the excitation wavelength and Aem is the absorbance at the emission wavelength. […]

In a further series the test system is MCF-7 cells. Description: Immunofluorescence confocal microscopy of spindle architecture and nuclear morphology. The note with it: 25 μM, 0, 12, 24, 48 and 72 hours. Format: cell-based, human. On the procedure: Cells adhered to poly-L-lysine coated coverslips were treated with noscapine, 9-chloro-noscapine, and other halogenated analogs (9-F-nos, 9-Br-nos, and 9-I-nos) for 0, 12, 24, 48 and 72 hours. After treatment, cells were fixed with cold (−20° C.) methanol for 5 min and then washed with phosphate-buffered saline (PBS) for 5 min. Non-specific sites were blocked by incubating with 100 μl of 2% BSA in PBS at 37° C. for 15 min. A mouse monoclonal antibody against α-tubulin (DM1A, Sigma) was diluted 1:500 in 2% BSA/PBS (100 μl) and incubated with the coverslips for 2 hours at 37° C. Cells were then washed with 2% BSA/PBS for 10 min at room temperature before incubating with a 1:200 dilution of a fluorescein-isothiocyanate (FITC)-labeled goat anti-mouse IgG antibody (Jackson ImmunoResearch, Inc., West Grove, Pa.) at 37° C. for 1 hour. Coverslips were then rinsed with 2% BSA/PBS for 10 min and incubated with propidium iodide (0.5 μg/ml) for 15 min at room temperature before they were mounted with Aquamount (Lerner Laboratories, Pittsburgh, Pa.) containing 0.01% 1,4-diazobicyclo(2,2,2)octane (DABCO, Sigma). […]
To test whether 9-chloro-noscapine induces spindle abnormalities prior to apoptotic cell death indicated by nuclear fragmentation of dying cells, the spindle architecture and nuclear morphology of MCF-7 cells treated with 9-chloronoscapine was evaluated using confocal microscopy (FIG. 4). […]

Series [1] has as its system 1A9 (ovarian cancer cells). The series can be described thus: Inhibition of cell proliferation. Format: cell-based.
The subject of series [2] is CEM/VM-1-5 (teniposide-resistant variant). The series can be described thus: Inhibition of cell proliferation. Format: cell-based, human.
Series [3] deals with normal human fibroblast cells. The series can be described thus: Cell cycle progression in normal cells. Format: cell-based.

Regarding `COc1ccc2c(c1OC)C(=O)O[C@@H]2[C@H]1c2c(c(Cl)c3c(c2OC)OCO3)CCN1C` [9-Cl-nos, (S)-3-((R)-9-chloro-4-methoxy-6-methyl-5,6,7,8-tetrahydro-[1,3]dioxolo[4,5-g]isoquinolin-5-yl)-6,7-dimethoxyisobenzofuran-1(3H)-one], on tubulin, the dissociation constant (Kd) came out at 40 ± 8 µM. Further, in the series with MCF-7 cells, the “spindle abnormalities / mitotic arrest” value is “mitotic arrest commencing as early as 12 hours, and maximizing at 24 hours”. Moreover, the “inhibition of cell proliferation (in words)” value in series [1] and in series [2] was “effectively inhibits cell proliferation” each time. The “effect on cell cycle of normal cells” value in series [3] was “without affecting the cell cycle”.
